# Source: patent publication US20230017045A1, “PYRIDINE AND PYRIMIDINE CARBOXYLATE HERBICIDES AND METHODS OF USE THEREOF” (Dow AgroSciences LLC, priority 2017, published 2023)
# Tested on: test plant species
# Assay: Post-emergent herbicidal activity test (greenhouse, foliar spray, visual growth reduction)
# Assay type: in vivo
# Details: post-emergence, 336 h, ECHCG: barnyardgrass (Echinochloa crus-galli), 140 g ai/ha, 14 days after application, read-out: Visual Growth Reduction (%) 14 Days After Application, ECHCG
# Procedure, shortened: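 Greenhouse plants at first–second true leaf stage sprayed overhead at 187 L/ha with compound in acetone/water/isopropanol/DMSO/crop oil/X-77 carrier; controls received solvent blank. Injury rated visually after 14 d on a 0–100% scale versus untreated and control plants, converted to growth reduction.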
row,SMILES,pest or weed control at 140 g/ha [%]
1,"COC(=O)c1nc(-c2ccc(O)cc2F)c(F)cc1Cl [F345, Methyl 3-chloro-5-fluoro-6-(2-fluoro-4-hydroxyphenyl) picolinate]",0 to 29
2,"COC(=O)c1nc(-c2ccc(C(F)(F)F)c(F)c2)ccc1Cl [F306, Methyl 3-chloro-6-(3-fluoro-4-(trifluoromethyl)phenyl)picolinate]",0 to 29

# Same assay, conditions: post-emergence, 336 h, IPOHE: ivy-leaf morning glory (Ipomoea hederacea), 140 g ai/ha, 14 days after application, read-out: Visual Growth Reduction (%) 14 Days After Application, IPOHE
row,SMILES,pest or weed control at 140 g/ha [%]
1,"COC(=O)c1nc(-c2ccc(O)cc2F)c(F)cc1Cl [F345, Methyl 3-chloro-5-fluoro-6-(2-fluoro-4-hydroxyphenyl) picolinate]",0 to 29
2,"COC(=O)c1nc(-c2ccc(C(F)(F)F)c(F)c2)ccc1Cl [F306, Methyl 3-chloro-6-(3-fluoro-4-(trifluoromethyl)phenyl)picolinate]",95 to 100

# Same assay, conditions: post-emergence, 336 h, KCHSC: kochia (Bassia scoparia), 140 g ai/ha, 14 days after application, read-out: Visual Growth Reduction (%) 14 Days After Application, KCHSC
row,SMILES,pest or weed control at 140 g/ha [%]
1,"COC(=O)c1nc(-c2ccc(O)cc2F)c(F)cc1Cl [F345, Methyl 3-chloro-5-fluoro-6-(2-fluoro-4-hydroxyphenyl) picolinate]",0 to 29
2,"COC(=O)c1nc(-c2ccc(C(F)(F)F)c(F)c2)ccc1Cl [F306, Methyl 3-chloro-6-(3-fluoro-4-(trifluoromethyl)phenyl)picolinate]",0 to 29

# Same assay, conditions: post-emergence, 336 h, ORYSA: rice (Oryza sativa), 140 g ai/ha, 14 days after application, read-out: Visual Growth Reduction (%) 14 Days After Application, ORYSA
row,SMILES,pest or weed control at 140 g/ha [%]
1,"COC(=O)c1nc(-c2ccc(O)cc2F)c(F)cc1Cl [F345, Methyl 3-chloro-5-fluoro-6-(2-fluoro-4-hydroxyphenyl) picolinate]",0 to 29
2,"COC(=O)c1nc(-c2ccc(C(F)(F)F)c(F)c2)ccc1Cl [F306, Methyl 3-chloro-6-(3-fluoro-4-(trifluoromethyl)phenyl)picolinate]",0 to 29

# Same assay, conditions: post-emergence, 336 h, SETFA: giant foxtail (Setaria faberi), 140 g ai/ha, 14 days after application, read-out: Visual Growth Reduction (%) 14 Days After Application, SETFA
row,SMILES,pest or weed control at 140 g/ha [%]
1,"COC(=O)c1nc(-c2ccc(O)cc2F)c(F)cc1Cl [F345, Methyl 3-chloro-5-fluoro-6-(2-fluoro-4-hydroxyphenyl) picolinate]",0 to 29
2,"COC(=O)c1nc(-c2ccc(C(F)(F)F)c(F)c2)ccc1Cl [F306, Methyl 3-chloro-6-(3-fluoro-4-(trifluoromethyl)phenyl)picolinate]",0 to 29

# Same assay, conditions: post-emergence, 336 h, SORVU: grain sorghum (Sorghum vulgare), 140 g ai/ha, 14 days after application, read-out: Visual Growth Reduction (%) 14 Days After Application, SORVU
row,SMILES,pest or weed control at 140 g/ha [%]
1,"COC(=O)c1nc(-c2ccc(O)cc2F)c(F)cc1Cl [F345, Methyl 3-chloro-5-fluoro-6-(2-fluoro-4-hydroxyphenyl) picolinate]",0 to 29
2,"COC(=O)c1nc(-c2ccc(C(F)(F)F)c(F)c2)ccc1Cl [F306, Methyl 3-chloro-6-(3-fluoro-4-(trifluoromethyl)phenyl)picolinate]",60 to 74

# Same assay, conditions: post-emergence, 336 h, STEME: common chickweed (Stellaria media), 140 g ai/ha, 14 days after application, read-out: Visual Growth Reduction (%) 14 Days After Application, STEME
row,SMILES,pest or weed control at 140 g/ha [%]
1,"COC(=O)c1nc(-c2ccc(O)cc2F)c(F)cc1Cl [F345, Methyl 3-chloro-5-fluoro-6-(2-fluoro-4-hydroxyphenyl) picolinate]",0 to 29
2,"COC(=O)c1nc(-c2ccc(C(F)(F)F)c(F)c2)ccc1Cl [F306, Methyl 3-chloro-6-(3-fluoro-4-(trifluoromethyl)phenyl)picolinate]",0 to 29

# Same assay, conditions: post-emergence, 336 h, TRZAS: wheat, spring (Triticum aestivum), 140 g ai/ha, 14 days after application, read-out: Visual Growth Reduction (%) 14 Days After Application, TRZAS
row,SMILES,pest or weed control at 140 g/ha [%]
1,"COC(=O)c1nc(-c2ccc(O)cc2F)c(F)cc1Cl [F345, Methyl 3-chloro-5-fluoro-6-(2-fluoro-4-hydroxyphenyl) picolinate]",0 to 29
2,"COC(=O)c1nc(-c2ccc(C(F)(F)F)c(F)c2)ccc1Cl [F306, Methyl 3-chloro-6-(3-fluoro-4-(trifluoromethyl)phenyl)picolinate]",0 to 29

# Same assay, conditions: post-emergence, 336 h, blackgrass (Alopecurus myosuroides), 14 Days After Application, 140 g ai/ha, read-out: Visual Growth Reduction (%) ALOMY
row,SMILES,pest or weed control at 140 g/ha [%]
1,"COC(=O)c1nc(-c2ccc(O)cc2F)c(F)cc1Cl [F345, Methyl 3-chloro-5-fluoro-6-(2-fluoro-4-hydroxyphenyl) picolinate]",0 to 29
2,"COC(=O)c1nc(-c2ccc(C(F)(F)F)c(F)c2)ccc1Cl [F306, Methyl 3-chloro-6-(3-fluoro-4-(trifluoromethyl)phenyl)picolinate]",0 to 29

# Same assay, conditions: post-emergence, 336 h, canada thistle (Cirsium arvense), 14 Days After Application, 140 g ai/ha, read-out: Visual Growth Reduction (%) CIRAR
row,SMILES,pest or weed control at 140 g/ha [%]
1,"COC(=O)c1nc(-c2ccc(O)cc2F)c(F)cc1Cl [F345, Methyl 3-chloro-5-fluoro-6-(2-fluoro-4-hydroxyphenyl) picolinate]",0 to 29
2,"COC(=O)c1nc(-c2ccc(C(F)(F)F)c(F)c2)ccc1Cl [F306, Methyl 3-chloro-6-(3-fluoro-4-(trifluoromethyl)phenyl)picolinate]",0 to 29

# Same assay, conditions: post-emergence, 336 h, crabgrass (Digitaria sanguinalis), 14 Days After Application, 140 g ai/ha, read-out: Visual Growth Reduction (%) DIGSA
row,SMILES,pest or weed control at 140 g/ha [%]
1,"COC(=O)c1nc(-c2ccc(O)cc2F)c(F)cc1Cl [F345, Methyl 3-chloro-5-fluoro-6-(2-fluoro-4-hydroxyphenyl) picolinate]",0 to 29
2,"COC(=O)c1nc(-c2ccc(C(F)(F)F)c(F)c2)ccc1Cl [F306, Methyl 3-chloro-6-(3-fluoro-4-(trifluoromethyl)phenyl)picolinate]",75 to 84

# Same assay, conditions: post-emergence, 336 h, lambsquarters (Chenopodium album), 14 Days After Application, 140 g ai/ha, read-out: Visual Growth Reduction (%) CHEAL
row,SMILES,pest or weed control at 140 g/ha [%]
1,"COC(=O)c1nc(-c2ccc(O)cc2F)c(F)cc1Cl [F345, Methyl 3-chloro-5-fluoro-6-(2-fluoro-4-hydroxyphenyl) picolinate]",0 to 29
2,"COC(=O)c1nc(-c2ccc(C(F)(F)F)c(F)c2)ccc1Cl [F306, Methyl 3-chloro-6-(3-fluoro-4-(trifluoromethyl)phenyl)picolinate]",0 to 29

# Same assay, conditions: post-emergence, 336 h, redroot pigweed (Amaranthus retroflexus), 14 Days After Application, 140 g ai/ha, read-out: Visual Growth Reduction (%) AMARE
row,SMILES,pest or weed control at 140 g/ha [%]
1,"COC(=O)c1nc(-c2ccc(O)cc2F)c(F)cc1Cl [F345, Methyl 3-chloro-5-fluoro-6-(2-fluoro-4-hydroxyphenyl) picolinate]",0 to 29
2,"COC(=O)c1nc(-c2ccc(C(F)(F)F)c(F)c2)ccc1Cl [F306, Methyl 3-chloro-6-(3-fluoro-4-(trifluoromethyl)phenyl)picolinate]",30 to 44

# Same assay, conditions: post-emergence, 336 h, wild oat (Avena fatua), 14 Days After Application, 140 g ai/ha, read-out: Visual Growth Reduction (%) AVEFA
row,SMILES,pest or weed control at 140 g/ha [%]
1,"COC(=O)c1nc(-c2ccc(O)cc2F)c(F)cc1Cl [F345, Methyl 3-chloro-5-fluoro-6-(2-fluoro-4-hydroxyphenyl) picolinate]",0 to 29
2,"COC(=O)c1nc(-c2ccc(C(F)(F)F)c(F)c2)ccc1Cl [F306, Methyl 3-chloro-6-(3-fluoro-4-(trifluoromethyl)phenyl)picolinate]",0 to 29

# Same assay, conditions: post-emergence, 336 h, yellow nutsedge (Cyperus esculentus), 14 Days After Application, 140 g ai/ha, read-out: Visual Growth Reduction (%) CYPES
row,SMILES,pest or weed control at 140 g/ha [%]
1,"COC(=O)c1nc(-c2ccc(O)cc2F)c(F)cc1Cl [F345, Methyl 3-chloro-5-fluoro-6-(2-fluoro-4-hydroxyphenyl) picolinate]",0 to 29
2,"COC(=O)c1nc(-c2ccc(C(F)(F)F)c(F)c2)ccc1Cl [F306, Methyl 3-chloro-6-(3-fluoro-4-(trifluoromethyl)phenyl)picolinate]",45 to 59
